In patent EP3336173A1, “A STRAIN OF A[…] APPLICATIONS THEREOF” (Infinitec Activos S.L., priority 2016, dated 2018):

System: Prostaglandin E2 (PGE2)
Assay: Anti-inflammatory activity: PGE2 quantification by ELISA in cells stimulated by IL-1α
Assay type: cell-based
Conditions: Cycloheximide 100 µg/ml; IL-1α (5 pM)
Experimental: When cells are stimulated by an inflammatory agent PGE2 is synthesized de novo and released into the extracellular space. Thus quantification of PGE2 is used to asses the anti-inflammatory activity products.
In the present example the anti-inflammatory activity of the extract of example 2 was determined by quantification of PGE2 in cells stimulated by IL-1α using a kit for an enzyme-linked immunosorbent assay (ELISA). The kit used was Prostaglandin E2 EIA kit Item n° 514010 from Cayman Chemical.
Prostaglandin E2 assay is based on competition between the PGE2 to be determined and a fixed amount of added PGE2-acetylcholinesterase (AChE) conjugate (PGE2 tracer) for a limited amount of PGE2 monoclonal antibody. The amount of PGE2 tracer able to bind the PGE2 monoclonal antibody will be inversely proportional to the concentration of PGE2 in the well. Both the antibody-PGE2 complex and then antibody-PGE2 tracer complex bind to polyclonal goat anti-mouse IgG previously bound to the well. Then the plate is washed to remove any unbound reagent and Ellman's reagent is added to determine the amount of AChE bound to the well. […] The intensity of this color, determined by UV-Vis spectrophotometry, is proportional to the amount of PGE2 tracer bound […], which is inversely proportional to the amount of PGE2 present in the free well during incubation.

C[C@@H]1C[C@@H]([C@H](O)CC2CC(=O)NC(=O)C2)C(=O)[C@@H](C)C1 [Cycloheximide]
PGE2: 31.85 pg/mL | inhibition at 100 µg/mL: 97.6%
